± gives the uncertainty stated by the source.
What follows are molecules tested on ozone (assay: apparent second-order rate constant for reaction with ozone (kapp,O3) (M-1 s-1); higher = faster oxidation by ozone). Conditions: pH 7; temperature: 22 C; OH radical scavenger: tBuOH 80 mM; phosphate 4 mM.
Description: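 Apparent second-order rate constants for reaction with ozone at pH 7 were determined by multicompound competition kinetics. Mixtures of targets and competitors (10 ug/L each) were ozonated in 4 mM phosphate buffer, pH 7, with 80 mM tBuOH as OH-radical scavenger, at 22 ± 1 °C. Peak-area abatement was measured by HPLC-HRMS/MS and k was derived from ln-ln slopes against competitors with known k (R2 > 0.9, >= 10 points, slope 0.1-10). Experiments were run in triplicate on 3 days; the value is the mean over valid competitors ± SD.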

| Compound | apparent second-order rate constant |
| --- | --- |
| COC(=O)C1C(OC(=O)c2ccccc2)CC2CCC1[N+]2(C)[O-] (centres undefined) [Cocaine-N-oxide] | < 0.401 |
| COC(=O)C1C(OC(=O)c2ccccc2)CC2CCC1N2C (centres undefined) [Cocaine] | 3020 ± 260 |
| COc1ccc2c3c1OC1C(O)C=CC4C(C2)N(C)CCC341 (centres undefined) [Codeine] | 1.03e+06 ± 88000 |
| CC12CCC(=O)C=C1CCC1C2C(=O)CC2(C)C1CCC2(O)C(=O)CO (centres undefined) [Cortisone] | 436 ± 22 |
| C#CCN(C)C(C)Cc1ccccc1 (centres undefined) [Deprenyl] | 930000 ± 81000 |
| CC(=O)Nc1c(I)c(C(=O)NCC(O)CO)c(I)c(C(=O)N(C)CC(O)CO)c1I (centres undefined) [Desmethoxyiopromide] | 1.74 ± 0.19 |
| CCC1OC(=O)C(C)C(O)C(C)C(OC2OC(C)CC(N(C)C)C2O)C(C)(O)CC(C)CN(C)C(C)C(O)C1(C)O (centres undefined) [Desosaminylazithromycin] | 239000 ± 8000 |
| COc1ccc2c(c1)C13CCCCC1C(C2)N(C)CC3 (centres undefined) [Dextromethorphan] | 5580 ± 96 |
| CN1CCC23CCCCC2C1Cc1ccc(O)cc13 (centres undefined) [Dextrorphan] | 1.87e+06 ± 170000 |
| CC(=O)Nc1c(I)c(NC(C)=O)c(I)c(C(=O)O)c1I [Diatrizoate] | 230 ± 30 |
| O=c1nc[nH]c2c1ncn2C1CCC(CO)O1 (centres undefined) [Didanosine] | 4.5 ± 0.5 |
| CC(NC(C)(C)C)C(O)c1cccc(Cl)c1 (centres undefined) [Dihydrobupropion] | 162 ± 8.9 |
| CC(=O)N(C)N(C(=O)C(=O)N(C)C)c1ccccc1 [Dioxypyramidon (AMDOPH)] | < 0.401 |
| C[N+](C)(CCOC(c1ccccc1)c1ccccc1)C1OC(C(=O)[O-])C(O)C(O)C1O (centres undefined) [Diphenhydramine-N-glucuronide] | 3.6 ± 0.4 |
| CN(C)CCOC(c1ccccc1)c1ccccc1 [Diphenhydramine] | 5500 ± 140 |
| CNC(C)C(O)c1ccccc1 (centres undefined) [Ephedrine] | 1720 ± 150 |
| CC(C)(C(=O)O)c1ccc(C(O)CCC[N+]2([O-])CCC(C(O)(c3ccccc3)c3ccccc3)CC2)cc1 (centres undefined) [Fexofenadine-N-oxide] | 11.9 ± 1.3 |
| CC(C)(C(=O)O)c1ccc(C(O)CCCN2CCC(C(O)(c3ccccc3)c3ccccc3)CC2)cc1 (centres undefined) [Fexofenadine] | 2950 ± 260 |

| Compound | apparent second-order rate constant |
| --- | --- |
| CN(C=O)CCC(Oc1ccc(C(F)(F)F)cc1)c1ccccc1 (centres undefined) [Fluoxetine formamide] | 2.7 ± 0.3 |
| CNCCC(Oc1ccc(C(F)(F)F)cc1)c1ccccc1 (centres undefined) [Fluoxetine] | 1720 ± 50 |
| O=C1CC2(CCCCC2)CN1 [Gabapentin-lactam] | 1.51 ± 0.16 |
| NCC1(CC(=O)O)CCCCC1 [Gabapentin] | 11.4 ± 1.2 |
| CC12CCC(=O)C=C1CCC1C2C(O)CC2(C)C1CCC2(O)C(=O)CO (centres undefined) [Hydrocortisone] | 420 ± 25 |
| CC(NC(C)(C)CO)C(=O)c1cccc(Cl)c1 (centres undefined) [Hydroxybupropion] | 3630 ± 310 |
| COCC(=O)Nc1c(I)c(C(=O)NCC(O)CO)c(I)c(C(=O)N(C)CC(O)CO)c1I (centres undefined) [Iopromide] | 2.14 ± 0.23 |
| CNC1(c2ccccc2Cl)CCCCC1=O (centres undefined) [Ketamine] | 10400 ± 1000 |
| CCC(C(=O)O)N1CCCC1=O (centres undefined) [Levetiracetam acid] | 0.66 ± 0.08 |
| CCC(C(N)=O)N1CCCC1=O (centres undefined) [Levetiracetam] | 0.81 ± 0.09 |
| CCC(=O)C(CC(C)N(C)C)(c1ccccc1)c1ccccc1 (centres undefined) [Methadone] | 4250 ± 360 |
| COC(=O)C(c1ccccc1)C1CCCCN1 (centres undefined) [Methylphenidate] | 4300 ± 360 |
| CC1CC2C(C(O)CC3(C)C2CCC3(O)C(=O)CO)C2(C)C=CC(=O)C=C12 (centres undefined) [Methylprednisolone] | 87 ± 4.5 |
| C[N+]1([O-])CCN2c3ccccc3Cc3ccccc3C2C1 (centres undefined) [Mianserin-N-oxide] | 295000 ± 26000 |
| CN1CCC23c4c5ccc(O)c4OC2C(O)C=CC3C1C5 (centres undefined) [Morphine] | 3.8e+07 ± 8e+06 |
| COc1c(C)c2c(c(O)c1CC=C(C)CCC(=O)O)C(=O)OC2 [Mycophenolic acid] | 7.2e+07 ± 1.5e+07 |
| CNCC(c1ccc(O)cc1)C1(O)CCCCC1 (centres undefined) [N,O-Didesmethylvenlafaxine] | 1.99e+06 ± 120000 |
| CCC1OC(=O)C(C)C(OC2CC(C)(OC)C(O)C(C)O2)C(C)C(OC2OC(C)CC(NC)C2O)C(C)(O)CC(C)CN(C)C(C)C(O)C1(C)O (centres undefined) [N-Desmethylazithromycin] | 10300 ± 980 |

Results, then the molecule that gave them:

| apparent second-order rate constant | Compound |
| --- | --- |
| 335000 ± 28000 | COC(=O)C(c1ccccc1Cl)N1CCc2sccc2C1 (centres undefined) [Clopidogrel] |
| 2.9 ± 0.3 | CN1C(=O)CCC1c1cccnc1 (centres undefined) [Cotinine] |
| 55 ± 2.9 | CCOC(=O)c1c(COCCN)nc(C)c(C(=O)OC)c1-c1ccccc1Cl [Dehydroamlodipine] |
| 2.25e+06 ± 220000 | Oc1ccc(C(c2ccc(O)cc2)c2ccccn2)cc1 [Desacetylbisacodyl] |
| 668000 ± 57000 | COc1ccc([C@@H]2Sc3ccccc3N(CCN(C)C)C(=O)[C@@H]2O)cc1 [Desacetyldiltiazem] |
| 134 ± 7.4 | NCC(O)COc1ccc(CC(N)=O)cc1 (centres undefined) [Desisopropylatenolol] |
| 1960 ± 160 | Clc1ccc2c(c1)CCc1cccnc1C2=C1CCNCC1 [Desloratadine] |
| 815000 ± 110000 | O=C(O)c1ccccc1Nc1c(Cl)cccc1Cl [Diclofenac carboxylic acid] |
| 830000 ± 71000 | O=C(O)Cc1ccccc1Nc1c(Cl)cccc1Cl [Diclofenac] |
| 735000 ± 67000 | COc1ccc(C2Sc3ccccc3N(CCN(C)C)C(=O)C2OC(C)=O)cc1 (centres undefined) [Diltiazem] |
| 79000 ± 70000 | Nc1nc(=O)n(C2CSC(CO)O2)cc1F (centres undefined) [Emtricitabine] |
| 1.57e+06 ± 140000 | CCCCc1ncc(C=C(Cc2cccs2)C(=O)O)n1Cc1ccc(C(=O)O)cc1 [Eprosartan] |
| 1.8e+07 ± 4e+06 | O=C1CC(c2ccc(O)c(O)c2)Oc2cc(O)cc(O)c21 (centres undefined) [Eriodictyol] |
| 1.27 ± 0.17 | CC(C)OC(=O)C(C)(C)Oc1ccc(C(=O)c2ccc(Cl)cc2)cc1 [Fenofibrate] |
| 2.8 ± 0.3 | CC(C)(Oc1ccc(C(=O)c2ccc(Cl)cc2)cc1)C(=O)O [Fenofibric acid] |
| 390 ± 30 | Nc1ccn(C2OC(CO)C(O)C2(F)F)c(=O)n1 (centres undefined) [Gemcitabine] |
| 3.3e+07 ± 7e+06 | COc1ccc(C2CC(=O)c3c(O)cc(O)cc3O2)cc1O (centres undefined) [Hesperitin] |
| 3000 ± 300 | NS(=O)(=O)c1cc2c(cc1Cl)NCNS2(=O)=O [Hydrochlorothiazide] |
| 850 ± 70 | CC(C)NC(=O)NS(=O)(=O)c1cnccc1Nc1cccc(CO)c1 [Hydroxytorasemide] |

| apparent second-order rate constant | Compound |
| --- | --- |
| 7.6e+07 ± 1.7e+07 | C1=Cc2ccccc2Nc2ccccc21 [Iminostilbene] |
| 5.15e+06 ± 670000 | COc1ccc2c(c1)c(CC(=O)O)c(C)n2C(=O)c1ccc(Cl)cc1 [Indomethacin] |
| 0.529 ± 0.016 | CC(C(=O)O)c1cccc(C(=O)c2ccccc2)c1 (centres undefined) [Ketoprofen] |
| 61000 ± 14000 | Nc1ccn([C@@H]2CS[C@H](CO)O2)c(=O)n1 [Lamivudine] |
| 371 ± 20 | Nc1nc(N)[n+]([C@@H]2O[C@H](C(=O)O)[C@@H](O)[C@H](O)[C@H]2O)nc1-c1cccc(Cl)c1Cl [Lamotrigine-N2-glucuronide] |
| 17.1 ± 1.2 | Nc1nnc(-c2cccc(Cl)c2Cl)c(N)n1 [Lamotrigine] |
| 10.9 ± 1.2 | NC(=O)N1c2ccccc2CC(O)c2ccccc21 (centres undefined) [Licarbazepine] |
| 17000 ± 1700 | CCNCC(=O)Nc1c(C)cccc1C [Lidocaine-N-desethyl] |
| 10.9 ± 1.2 | CC[N+]([O-])(CC)CC(=O)Nc1c(C)cccc1C [Lidocaine-N-oxide] |
| 185000 ± 17000 | CCN(CC)CC(=O)Nc1c(C)cccc1C [Lidocaine] |
| 198000 ± 16000 | CCCCc1nc(Cl)c(CO)n1Cc1ccc(-c2ccccc2-c2nn[nH]n2)cc1 [Losartan] |
| 1.12e+06 ± 80000 | Cc1cccc(Nc2ccccc2C(=O)O)c1C [Mefenamic acid] |
| 1.94e+06 ± 100000 | CN1CCN2c3ccccc3Cc3ccccc3C2C1 (centres undefined) [Mianserin] |
| 957000 ± 81000 | CN1CCN2c3ncccc3Cc3ccccc3C2C1 (centres undefined) [Mirtazapine] |
| 89 ± 4.9 | CC(=O)Nc1ccc(S(=O)(=O)Nc2ncccn2)cc1 [N4-Acetylsulfadiazine] |
| 337000 ± 28000 | COc1cc(OC)nc(NS(=O)(=O)c2ccc(NC(C)=O)cc2)n1 [N4-Acetylsulfadimethoxine] |
| 815 ± 43 | CC(=O)Nc1ccc(S(=O)(=O)Nc2nc(C)cc(C)n2)cc1 [N4-Acetylsulfamethazine] |
| 947 ± 280 | CC(=O)Nc1ccc(S(=O)(=O)Nc2ccccn2)cc1 [N4-Acetylsulfapyridine] |
| 1.02e+07 ± 1.2e+06 | CC(=O)Nc1ccc(S(=O)(=O)Nc2nccs2)cc1 [N4-Acetylsulfathiazole] |

Reference: the supplement of paper PMC12490022
